Measurements as given in the CombiSolv-Exp solvation set (Vermeire and Green 2021).

Assay: solvent given as SMILES

CCCCCCc1cccc2ccccc12
Conditions	solvation free energy, 298 K [kcal/mol]
in OCCOCCO	-8.95

CCOP(=S)(OCC)SCSP(=S)(OCC)OCC
Conditions	solvation free energy, 298 K [kcal/mol]
in O	-6.1

CC(C)(C)Cl
Conditions	solvation free energy, 298 K [kcal/mol]
in Brc1cccc2ccccc12	-3.15
in Brc1ccccc1	-3.44
in C1CCCCC1	-3.64
in C1CCOCC1	-3.82
in C1COCCO1	-3.36
in C=CCCCCCCCCCCCCCC	-3.07
in CC(=O)N(C)C	-3.1
in CC(=O)OCc1ccccc1	-3.28
in CC(C)(C)O	-2.95
in CC(C)=O	-3.46
in CC(C)CC(C)(C)C	-3.29
in CC(C)OC(C)C	-3.53
in CC(O)C(C)O	-2.37
in CC(O)CCO	-2.14
in CC(O)CO	-2.29
in CCC(C)=O	-3.66
in CCC(O)CO	-2.76
in CCCCCC	-3.43
in CCCCCCC	-3.47
in CCCCCCCC	-3.35
in CCCCCCO	-3.14
in CCCCCO	-3.23
in CCCCO	-3.08
in CCO	-3.22
in CCOC(C)=O	-3.66
in CCOCC	-3.38
in CN1CCCC1=O	-2.97
in CN(C)C=O	-3.15
in CNC=O	-3.02
in CO	-3.11
in COC(C)(C)C	-3.7
in COCCO	-3.3
in Cc1ccc(C)cc1	-3.58
in ClC(Cl)(Cl)Cl	-3.66
in ClCCCl	-3.69
in Clc1ccccc1	-3.56
in N#Cc1ccccc1	-3.15
in O	1.09
in O=C1CCCCC1	-3.64
in OCCO	-1.8
in OCCOCCO	-2.39
in OCCOCCOCCO	-2.49
in c1ccc2ncccc2c1	-3.18
in c1ccccc1	-3.93

CCF
Conditions	solvation free energy, 298 K [kcal/mol]
in C1CCOC1	-1.79
in CCCCCCC	-1.45
in CN1CCCC1=O	-1.86
in CN(C)C=O	-1.95
in O	0.41

ClC1=C(Cl)C2(Cl)C3C(Cl)CC(Cl)C3C1(Cl)C2(Cl)Cl (centres undefined)
Conditions	solvation free energy, 298 K [kcal/mol]
in O	-3.44

NCCc1ccccc1
Conditions	solvation free energy, 298 K [kcal/mol]
in C=CCCCCCCC=C	-7.41
in O	-6.56

Cc1cccc(C)n1
Conditions	solvation free energy, 298 K [kcal/mol]
in CC(C)CC(C)(C)C	-5.29
in O	-4.59

CCCC(=O)OCC
Conditions	solvation free energy, 298 K [kcal/mol]
in CCCCCCCC	-4.69
in CCCCCCCCCCCCCCCC	-4.54
in CCCCCCCCO	-4.86
in CN1CCCC1=O	-4.9
in O	-2.52
in O=CN1CCOCC1	-4.61
in [2H]O[2H]	-2.59

Cc1ccccc1C
Conditions	solvation free energy, 298 K [kcal/mol]
in CC#N	-5.37
in CC(C)CC(C)(C)C	-5.5
in CC(O)CO	-4.31
in CCCCCCC	-5.51
in CCCCCCCCCCCCCCCC	-5.38
in CCCCCCCCO	-5.3
in CCCCCO	-5.18
in CCCCOC(C)=O	-6.22
in CNC=O	-5.02
in COCCO	-5.25
in ClCCCl	-6.13
in NC=O	-3.55
in NCCO	-4.08
in O	-0.89
in O=CN1CCOCC1	-5.27
in O=Cc1ccco1	-5.37
in OCCO	-3.65
in OCCOCCO	-4.48
in OCCOCCOCCO	-4.61

Clc1ccc(Br)cc1
Conditions	solvation free energy, 298 K [kcal/mol]
in CC(C)CO	-6.51
in CCCCOCCCC	-7.08
in COC(C)(C)C	-7.27
in O	-1.61

CCCC(C)(O)CC (centres undefined)
Conditions	solvation free energy, 298 K [kcal/mol]
in CCCCCCCC	-5.4
in CCCCCCCCCC	-5.34

CN(C)C(=O)Nc1ccc(Cl)c(Cl)c1
Conditions	solvation free energy, 298 K [kcal/mol]
in CC(C)CCO	-14.6
in CCCC(C)O	-14.5
in CCCCCl	-13.3
in CCCCOC(C)=O	-14.5
in CCCCOCCCC	-12.6
in CCOC(C)=O	-14.6
in COC(C)=O	-14.6
in ClC(Cl)(Cl)Cl	-12.4
in ClC(Cl)Cl	-14.5
in ClCCCl	-14.3
in ClCCl	-14.2
in Clc1ccccc1	-13.6
in O	-10.9

C=C(C)C(=C)C
Conditions	solvation free energy, 298 K [kcal/mol]
in CN1CCCC1=O	-3.55
in CN(C)C=O	-3.53
in O	0.4
in OCCO	-1.73
in OCCOCCO	-2.47
in OCCOCCOCCO	-2.49

O=C(O)CCCCCCCCC(=O)O
Conditions	solvation free energy, 298 K [kcal/mol]
in CCC(C)O	-17
in CCCCCCO	-16.7
in CCCCCO	-16.9
in CCCCO	-17.1
in CCCO	-17.2

Clc1ccc2c(c1)Oc1c(Cl)c(Cl)c(Cl)c(Cl)c1O2
Conditions	solvation free energy, 298 K [kcal/mol]
in O	-4.15

CCCCCO
Conditions	solvation free energy, 298 K [kcal/mol]
in Brc1ccccc1	-5.42
in C1CCOC1	-6.61
in CC#N	-5.85
in CC(C)(C)O	-6.96
in CC(C)CC(C)(C)C	-4.37
in CC(C)CO	-6.85
in CC(C)O	-6.83
in CCCCCC	-4.62
in CCCCCCC	-4.48
in CCCCCCCC	-4.27
in CCCCCCCCCC	-4.16
in CCCCCCCCCCCCCCCC	-4.08
in CCCCCCCCCCO	-6.39
in CCCCCCCCO	-6.37
in CCCCCCO	-6.68
in CCCCO	-6.77
in CCCO	-6.78
in CO	-6.84
in Cc1cccc(C)c1	-5.21
in Cc1ccccc1C	-5.21
in Clc1ccccc1	-5.48
in NC=O	-5.65
in O	-4.56
in [2H]O[2H]	-4.61

CCCCCCCCCCCCCCCCCCCCCCCCCC
Conditions	solvation free energy, 298 K [kcal/mol]
in CC(=O)N(C)C	-17.6
in CC(C)(C)O	-15.8
in CN(C)C=O	-17.8
in O	5.59

CN
Conditions	solvation free energy, 298 K [kcal/mol]
in CCCCCC	-1.64
in CCCCO	-2.89
in CN(C)C=O	-2.66
in ClC(Cl)(Cl)Cl	-2.33
in ClC(Cl)Cl	-3.16
in O	-4.56

O=Cc1ccccc1O
Conditions	solvation free energy, 298 K [kcal/mol]
in O	-4.71

CCCCCI
Conditions	solvation free energy, 298 K [kcal/mol]
in O	-0.14

CCC(CC)(CC)CC
Conditions	solvation free energy, 298 K [kcal/mol]
in CCCCCC	-5.88
in CO	-4.3

C=CCCCCCCC
Conditions	solvation free energy, 298 K [kcal/mol]
in CCCCCCCCO	-5.21
in O	2.06

CC(=O)NS(=O)(=O)c1ccc(N)cc1
Conditions	solvation free energy, 298 K [kcal/mol]
in O	-18.4

CC(C)Cc1ccc(C(C)C(=O)O)cc1 (centres undefined)
Conditions	solvation free energy, 298 K [kcal/mol]
in CC(C)CO	-13.2
in CC(C)O	-13.4
in CCC(C)O	-13.2
in CCCCCCCCCCO	-13
in CCCCCCCO	-13.1
in CCCCCCO	-13.2
in CCCCCO	-13.1
in CCCCO	-13.1
in CCCO	-13.2
in CCO	-13.1
in CN(C)C=O	-13.1
in CO	-13.1
in Clc1ccccc1	-11.9
in NC=O	-10.9
in O	-7

COc1ccc(C(=O)N(O)c2cccc(Cl)c2)cc1
Conditions	solvation free energy, 298 K [kcal/mol]
in O	-12.8

[N-]=[N+]=O
Conditions	solvation free energy, 298 K [kcal/mol]
in CC(C)=O	-1.05
in CC(C)CC(C)(C)C	-0.69
in CC(C)O	-0.48
in CCC(C)=O	-0.94
in CCCCCC	-0.74
in CCCCCCC	-0.65
in CCCCCCCC	-0.6
in CCCCCCCCCC	-0.49
in CCCCCCCCCCO	-0.55
in CCCCCCCCO	-0.45
in CCCCCCO	-0.49
in CCCCCO	-0.5
in CCCCO	-0.55
in CCCCOC(C)=O	-0.98
in CCCO	-0.59
in CCO	-0.61
in CO	-0.69
in COC(C)=O	-1.09
in ClC(Cl)(Cl)Cl	-0.86
in ClC(Cl)Cl	-0.97
in Clc1ccccc1	-0.68
in O	0.31

Cc1cccs1
Conditions	solvation free energy, 298 K [kcal/mol]
in O	-1.38

CCC(C)Br (centres undefined)
Conditions	solvation free energy, 298 K [kcal/mol]
in C=CCCCCCCCCCCCCCC	-3.96
in O	-0.27

CN1CCNCC1
Conditions	solvation free energy, 298 K [kcal/mol]
in O	-7.77

COc1cccc(OC)c1O
Conditions	solvation free energy, 298 K [kcal/mol]
in O	-6.96

Cc1nc(N(C)C)nc(OC(=O)N(C)C)c1C
Conditions	solvation free energy, 298 K [kcal/mol]
in O	-9.41

C1CCNCC1
Conditions	solvation free energy, 298 K [kcal/mol]
in C1CCOC1	-5.22
in C1COCCO1	-4.95
in COC(C)(C)C	-4.87
in O	-5.11

CCCCCCCO
Conditions	solvation free energy, 298 K [kcal/mol]
in CC(C)CC(C)(C)C	-5.82
in CCCCCC	-5.59
in CCCCCCC	-5.59
in CCCCCCCCCCCCCCCC	-5.43
in CCCCCCO	-8.08
in CO	-7.6
in NC=O	-6.38
in O	-4.24

Clc1ccc(-c2cc(Cl)ccc2Cl)cc1
Conditions	solvation free energy, 298 K [kcal/mol]
in CCCCCCCCO	-10.8

O=C1c2ccccc2C(=O)c2c(Cl)cccc21
Conditions	solvation free energy, 298 K [kcal/mol]
in C1CCOC1	-15
in CC(=O)N(C)C	-14.9
in CC(C)(C)O	-12.6
in CC(C)CC(C)(C)C	-12
in CC(C)CC(C)O	-12.7
in CC(C)CCO	-12.7
in CC(C)CO	-12.6
in CC(C)O	-12.6
in CCC(C)O	-12.7
in CCCC(C)CO	-12.8
in CCCC(C)O	-12.8
in CCCCCC	-12.2
in CCCCCCC	-12.3
in CCCCCCCC	-12.3
in CCCCCCCCCC	-12.4
in CCCCCCCCCCO	-13.1
in CCCCCCCCO	-13.1
in CCCCCCCO	-13.1
in CCCCCCO	-13.1
in CCCCCO	-12.9
in CCCCCOC(C)=O	-13.9
in CCCCO	-12.8
in CCCCOC(C)=O	-14
in CCCCOCCCC	-13.1
in CCCO	-12.8
in CCCOC(C)=O	-14.1
in CCOC(C)=O	-14.2
in CCOCC	-13.4
in CO	-12.7
in COC(C)(C)C	-13.4
in COC(C)=O	-14.3
in Fc1ccccc1	-14.6
in O	-8.23
